One test concerns naïve WT C57BL/6 mice. Briefly: Hypoferremia in naïve mice. The format is in vivo, mouse. To be noted: Mus musculus, po, 3 h, relative to vehicle, read-out: Serum Iron Reduction at 3 h (%); for inhibition in vivo at 10 mg/kg: Dose 10 mg/kg p.o.; for inhibition in vivo at 30 mg/kg: Dose 30 mg/kg p.o.; for inhibition in vivo at 100 mg/kg: Dose 100 mg/kg p.o. The protocol:
Injection of synthetic hepcidin in wild-type (WT) naïve mice results in a reduction of serum iron levels (40-50% from the vehicle control) with a maximal effect at 3-4 hours post treatment (Rivera, 2005; FIG. 12A).
Female C57BL/6 mice (Janvier, France) at age of 9 weeks are fed a standard diet (Harlan Provimi Kliba 3436) and treated per os (p.o.) with compounds or the corresponding amount of vehicle at a volume of 10 ml/kg body weight. Fpn inhibitors are formulated in 0.5% methylcellulose/water or 20% cremophor EL/water and dosed p.o. in mice at 10, 30 or 100 mg/kg body weight. Three hours later, mice are pre-terminally anesthetized in isoflurane chambers and blood is collected by retro-orbital bleeding. Mice are sacrificed by cervical dislocation and spleens, livers and duodena were harvested and used for biomarker analysis. All experiments are conducted in compliance with the license approved by the responsible veterinarian authorities. Serum is isolated by centrifugation of blood into gel-containing microtainers and serum iron is determined by the MULTIGENT Iron assay (Abbott Diagnostics, 6K95). Eight mice per group are used and one-way ANOVA with Bonferroni's multiple comparison test is performed to analyze the statistical differences between the experimental groups.
Table 6 Efficacy of Fpn inhibitors tested in the naïve mouse hypoferremia model. Serum iron reduction induced by selected ferroportin inhibitors dosed p.o. in naïve WT C57BL/6 mice at 10, 30 and 100 mg/kg. Relative serum iron reduction at 3 h after dosing was calculated by subtracting the average of serum iron values of animals dosed with the Fpn inhibitor from that of vehicle-treated animals. The difference in average serum iron values between vehicle and compound treated groups was then divided by the average of serum iron of the vehicle control group and listed as percentage.

Another test concerns anemic Wistar rats. The test is described as follows: Prevention of iron absorption in anemic rats. The format is in vivo, rat. The conditions noted are these: n=5. The procedure:
To assess the in vivo efficacy of ferroportin (Fpn) inhibitors to block iron absorption, a series of Fpn inhibitors is tested in an anemic rat model for iron absorption. Wistar rats (3-4 weeks old, n=5, Janvier Labs) are fed a low iron diet (Provimi-Kliba, Cat. 2039) until their hemoglobin (Hb) values reach 7-8 g/dl one day before dosing of the Fpn inhibitor compounds. One hour before oral application of 0.5 mg/kg of ferrous sulfate, test compounds formulated in methyl cellulose or Cremophor are dosed orally. Blood samples are taken by tail vein puncture one hour before administration of iron (−1 h), immediately after dosing of the Fpn inhibitors (0 h) and one hour (1 h), three hours (3 h) and occasionally up to 6 hours (6 h) after dosing of the test compounds. Serum iron levels are measured (Abbott Diagnostics, Cat. 6K95) and inhibition of the rise of serum iron three hours after dosing of the test compound is calculated as a measure for efficacy of the Fpn inhibitors in blocking iron absorption (Table 7).

Marks after values point to notes of the source that are not given here.

`O=C(NCc1ncccc1F)c1cnc(CCNCCc2nc3ccccc3[nH]2)o1` [Example Compound No. 1]: in the test with naïve WT C57BL/6 mice, the inhibition in vivo at 10 mg/kg was 0%. In the test with naïve WT C57BL/6 mice, the inhibition in vivo at 30 mg/kg is 28%. For the same compound, the inhibition in vivo at 100 mg/kg in the test with naïve WT C57BL/6 mice is 51%. Besides, the “Serum Iron Inhibition (%) at 3 h” value in the test with anemic Wistar rats (Dose 3 mg/kg oral) was 2.1%; with anemic Wistar rats (Dose 10 mg/kg oral) it was 42.6** %; in the test on anemic Wistar rats (Dose 30 mg/kg oral) it was 64.9*** %.
With `O=C(NCc1ncccc1F)c1cnc(C2CN(CCc3nc4ccccc4[nH]3)C2)o1` [Example Compound No. 2], in the test with naïve WT C57BL/6 mice, the inhibition in vivo at 10 mg/kg was 9%, the inhibition in vivo at 30 mg/kg was 26% and the inhibition in vivo at 100 mg/kg is 50%. The “Serum Iron Inhibition (%) at 3 h” value in the test with anemic Wistar rats (Dose 3 mg/kg oral) is −3%. Also, in the test on anemic Wistar rats (Dose 10 mg/kg oral), the “Serum Iron Inhibition (%) at 3 h” value is given as 29** %. In addition, the “Serum Iron Inhibition (%) at 3 h” value in the test with anemic Wistar rats (Dose 30 mg/kg oral) is listed as 57*** %.
With `O=C(NCc1ncccc1F)c1csc(CCNCc2nc3ccccc3[nH]2)n1` [Example Compound No. 40], in the test with naïve WT C57BL/6 mice, the inhibition in vivo at 10 mg/kg came out at 10%, the inhibition in vivo at 30 mg/kg came to 30% and the inhibition in vivo at 100 mg/kg turned out to be 50%. Besides, the “Serum Iron Inhibition (%) at 3 h” value in the test on anemic Wistar rats (Dose 10 mg/kg oral) is on record as 32** %. In addition, the “Serum Iron Inhibition (%) at 3 h” value in the test with anemic Wistar rats (Dose 30 mg/kg oral) was 53*** %. Moreover, the “Serum Iron Inhibition (%) at 3 h” value with anemic Wistar rats (Dose 100 mg/kg oral) is 97*** %.
